Laboratory results as given in patent US20260022142A1, “MACROCYCLIC IMMUNOMODULATORS” (Bristol-Myers Squibb Company, priority 2022, published 2026).
Numbered stars: 1 amine (or outer) side, 2 acyl side, 3 side chain; on linkers, the order of the positions; unused ones are H or OH. Bridge positions count the residues as written; N and C are the ends. Square brackets hold non-standard residues; d marks the D form. Peptide text beside a SMILES is read from it. * marks the point of attachment. ξ: configuration not given here. Bip = N[C@@H](Cc1ccc(-c2ccccc2)cc1)C(=O)O; Phe(3-Me) = Cc1cccc(C[C@H](N)C(=O)O)c1; X12 = CC(N)[C@H](N[*:1])C(=O)[*:2]; Cha = N[C@@H](CC1CCCCC1)C(=O)O; Cit = NC(=O)NCCC[C@H](N)C(=O)O; Thr(3ξ) = CC(O)[C@H](N)C(=O)O; Tle = CC(C)(C)[C@H](N)C(=O)O; Carboxymethyl = O=C(O)C*; Orn = NCCC[C@H](N)C(=O)O; Aun = NCCCCCCCCCCC(=O)O; Dab = NCC[C@H](N)C(=O)O

target: T1, PD-1/PD-L1 interaction (PE-labeled human PD-L1-Ig binding to Jurkat cell line over-expressing human PD-1) (Homo sapiens, UniProt Q15116); assay: Jurkat-PD-1 Cell Binding High-Content Screening Assay (CBA); assay type: cell-based; details: Jurkat cell line over-expressing human PD-1; PE-labeled PD-L1-Ig 20 nM final; read-out: Jurkat hPD1-PDL1 IC50
T1 construct: expressed in transfected cells; host or cells: Jurkat
T1 sequence (Q15116 25-288): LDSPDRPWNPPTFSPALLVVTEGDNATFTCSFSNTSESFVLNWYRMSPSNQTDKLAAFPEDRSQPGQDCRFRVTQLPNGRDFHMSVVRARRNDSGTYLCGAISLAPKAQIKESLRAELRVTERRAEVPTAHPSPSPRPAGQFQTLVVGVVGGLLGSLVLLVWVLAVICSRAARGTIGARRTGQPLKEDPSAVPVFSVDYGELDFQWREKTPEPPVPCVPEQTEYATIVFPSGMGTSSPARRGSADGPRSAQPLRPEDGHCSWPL
Summary of the method: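 First, compound is added to PD-1-expressing Jurkat cells in serum-containing DMEM and left 2 h at 37° C. Next, PE-conjugated PD-L1-Ig is introduced at 20 nM final concentration for 1 hour. Finally, cells are fixed in 4% paraformaldehyde with Hoechst 33342, washed and imaged.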

SMILES | IC50 [nM]
Cc1cccc(C[C@@H]2NC(=O)[C@H](CC(=O)O)NC(=O)[C@H](Cc3ccc(OCC(=O)O)cc3)NC(=O)[C@H](C(C)N)NC(=O)CSC[C@@H](C(=O)N[C@@H](CCN)C(=O)NCCCCCCCCCCC(=O)O)NC(=O)[C@H](CCC(N)=O)NC(=O)[C@H](C(C)O)NC(=O)[C@H](CC3CCCCC3)NC(=O)[C@H](CCN)NC(=O)[C@@H](CC(C)C)NC(=O)[C@H](CCCN)NC(=O)[C@H](Cc3ccc(OCC(=O)O)cc3)NC(=O)[C@H](Cc3ccc(-c4ccccc4)cc3)NC(=O)[C@H](Cc3ccc(OCC(=O)O)cc3)NC2=O)c1 (stereo partly drawn) [Compound 3519] ({CH2CO}-[X12]Y(Carboxymethyl)D[Phe(3-Me)]Y(Carboxymethyl)[Bip]Y(Carboxymethyl)[Orn][dL][Dab][Cha][Thr(3ξ)]QC[Dab][Aun]-OH; thioether N-14) | 10.4
Cc1cccc(C[C@@H]2NC(=O)[C@H](CC(=O)O)NC(=O)[C@H](Cc3ccc(OCC(=O)O)cc3)NC(=O)[C@H](C(C)O)NC(=O)CSC[C@@H](C(=O)N[C@H](CC(N)=O)C(=O)NCCCCCCCCCCC(=O)O)NC(=O)[C@H](C(C)(C)C)NC(=O)[C@H](CO)NC(=O)[C@H](CC3CCCCC3)NC(=O)[C@H](CCN)NC(=O)[C@@H](CC(C)C)NC(=O)[C@H](CCCN)NC(=O)[C@H](Cc3ccc(OCC(=O)O)cc3)NC(=O)[C@H](Cc3ccc(-c4ccccc4)cc3)NC(=O)[C@H](Cc3ccc(O)cc3)NC2=O)c1 (stereo partly drawn) [Compound 3520] ({CH2CO}-[Thr(3ξ)]Y(Carboxymethyl)D[Phe(3-Me)]Y[Bip]Y(Carboxymethyl)[Orn][dL][Dab][Cha]S[Tle]C[dN][Aun]-OH; thioether N-14) | 608
Cc1cccc(C[C@@H]2NC(=O)[C@H](CC(=O)O)NC(=O)[C@H](Cc3ccc(OCC(=O)O)cc3)NC(=O)[C@H](CCCNC(=N)N)NC(=O)CSC[C@@H](C(=O)N[C@H](CC(N)=O)C(=O)NCCCCCCCCCCC(=O)O)NC(=O)[C@H](C(C)O)NC(=O)[C@H](C(C)O)NC(=O)[C@H](CC3CCCCC3)NC(=O)[C@H](CCN)NC(=O)[C@@H](CC(C)C)NC(=O)[C@H](CCCN)NC(=O)[C@H](CCCNC(N)=O)NC(=O)[C@H](Cc3ccc(-c4ccccc4)cc3)NC(=O)[C@H](C(C)C)NC2=O)c1 (stereo partly drawn) [Compound 3522] ({CH2CO}-RY(Carboxymethyl)D[Phe(3-Me)]V[Bip][Cit][Orn][dL][Dab][Cha][Thr(3ξ)][Thr(3ξ)]C[dN][Aun]-OH; thioether N-14) | 40.8
Cc1cccc(C[C@@H]2NC(=O)[C@H](CC(=O)O)NC(=O)[C@H](Cc3ccc(OCC(=O)O)cc3)NC(=O)[C@H](CCCNC(=N)N)NC(=O)CSC[C@@H](C(=O)N[C@H](CC(N)=O)C(=O)NCCCCCCCCCCC(=O)O)NC(=O)[C@H](C(C)O)NC(=O)[C@H](C(C)O)NC(=O)[C@H](CC3CCCCC3)NC(=O)[C@H](CCN)NC(=O)[C@@H](CC(C)C)NC(=O)[C@H](CCCN)NC(=O)[C@H](Cc3ccc(OCC(=O)O)cc3)NC(=O)[C@H](Cc3ccc(-c4ccccc4)cc3)NC(=O)[C@H](Cc3ccc(OCC(=O)O)cc3)NC2=O)c1 (stereo partly drawn) [Compound 3523] ({CH2CO}-RY(Carboxymethyl)D[Phe(3-Me)]Y(Carboxymethyl)[Bip]Y(Carboxymethyl)[Orn][dL][Dab][Cha][Thr(3ξ)][Thr(3ξ)]C[dN][Aun]-OH; thioether N-14) | 121
Cc1cccc(C[C@@H]2NC(=O)[C@H](CC(=O)O)NC(=O)[C@H](Cc3ccc(OCC(=O)O)cc3)NC(=O)[C@H](CCCNC(=N)N)NC(=O)CSC[C@@H](C(=O)N[C@H](CC(N)=O)C(=O)NCCCCCCCCCCC(=O)O)NC(=O)[C@H](C(C)O)NC(=O)[C@H](C(C)O)NC(=O)[C@H](CC3CCCCC3)NC(=O)[C@H](CCN)NC(=O)[C@@H](CC(C)C)NC(=O)[C@H](CCCN)NC(=O)[C@H](Cc3ccc(OCC(=O)O)cc3)NC(=O)[C@H](Cc3ccc(-c4ccccc4)cc3)NC(=O)[C@H](Cc3ccc(O)cc3)NC2=O)c1 (stereo partly drawn) [Compound 3524] ({CH2CO}-RY(Carboxymethyl)D[Phe(3-Me)]Y[Bip]Y(Carboxymethyl)[Orn][dL][Dab][Cha][Thr(3ξ)][Thr(3ξ)]C[dN][Aun]-OH; thioether N-14) | 40.8
Cc1cccc(C[C@@H]2NC(=O)[C@H](CC(=O)O)NC(=O)[C@H](Cc3ccc(OCC(=O)O)cc3)NC(=O)[C@H](CCCNC(=N)N)NC(=O)CSC[C@@H](C(=O)N[C@H](CC(N)=O)C(=O)NCCCCCCCCCCC(=O)O)NC(=O)[C@H](C(C)O)NC(=O)[C@H](CO)NC(=O)[C@H](CC3CCCCC3)NC(=O)[C@H](CCN)NC(=O)[C@@H](CC(C)C)NC(=O)[C@H](CCCN)NC(=O)[C@H](Cc3ccc(OCC(=O)O)cc3)NC(=O)[C@H](Cc3ccc(-c4ccccc4)cc3)NC(=O)[C@H](Cc3c[nH]c4ccccc34)NC2=O)c1 (stereo partly drawn) [Compound 3525] ({CH2CO}-RY(Carboxymethyl)D[Phe(3-Me)]W[Bip]Y(Carboxymethyl)[Orn][dL][Dab][Cha]S[Thr(3ξ)]C[dN][Aun]-OH; thioether N-14) | 346
Cc1cccc(C[C@@H]2NC(=O)[C@H](CC(=O)O)NC(=O)[C@H](Cc3ccc(OCC(=O)O)cc3)NC(=O)[C@H](CCCNC(=N)N)NC(=O)CSC[C@@H](C(=O)N[C@H](CC(N)=O)C(=O)NCCCCCCCCCCC(=O)O)NC(=O)[C@H](CO)NC(=O)[C@H](C(C)O)NC(=O)[C@H](CC3CCCCC3)NC(=O)[C@H](CCN)NC(=O)[C@@H](CC(C)C)NC(=O)[C@H](CCCN)NC(=O)[C@H](Cc3ccc(OCC(=O)O)cc3)NC(=O)[C@H](Cc3ccc(-c4ccccc4)cc3)NC(=O)[C@H](Cc3ccc(OCC(=O)O)cc3)NC2=O)c1 (stereo partly drawn) [Compound 3526] ({CH2CO}-RY(Carboxymethyl)D[Phe(3-Me)]Y(Carboxymethyl)[Bip]Y(Carboxymethyl)[Orn][dL][Dab][Cha][Thr(3ξ)]SC[dN][Aun]-OH; thioether N-14) | 112
Cc1cccc(C[C@@H]2NC(=O)[C@H](CC(=O)O)NC(=O)[C@H](Cc3ccc(OCC(=O)O)cc3)NC(=O)[C@H](CCCNC(=N)N)NC(=O)CSC[C@@H](C(=O)N[C@H](CC(N)=O)C(=O)NCCCCCCCCCCC(=O)O)NC(=O)[C@H](CO)NC(=O)[C@H](C(C)(C)C)NC(=O)[C@H](CC3CCCCC3)NC(=O)[C@H](CCN)NC(=O)[C@@H](CC(C)C)NC(=O)[C@H](CCCN)NC(=O)[C@H](Cc3ccc(OCC(=O)O)cc3)NC(=O)[C@H](Cc3ccc(-c4ccccc4)cc3)NC(=O)[C@H](Cc3ccc(OCC(=O)O)cc3)NC2=O)c1 [Compound 3527] ({CH2CO}-RY(Carboxymethyl)D[Phe(3-Me)]Y(Carboxymethyl)[Bip]Y(Carboxymethyl)[Orn][dL][Dab][Cha][Tle]SC[dN][Aun]-OH; thioether N-14) | 51.4
Cc1cccc(C[C@@H]2NC(=O)[C@H](CC(=O)O)NC(=O)[C@H](Cc3ccc(OCC(=O)O)cc3)NC(=O)[C@H](CCCNC(=N)N)NC(=O)CSC[C@@H](C(=O)N[C@H](CC(N)=O)C(=O)NCCCCCCCCCCC(=O)O)NC(=O)[C@H](CCC(N)=O)NC(=O)[C@H](C(C)(C)C)NC(=O)[C@H](CC3CCCCC3)NC(=O)[C@H](CCN)NC(=O)[C@@H](CC(C)C)NC(=O)[C@H](CCCN)NC(=O)[C@H](Cc3ccc(OCC(=O)O)cc3)NC(=O)[C@H](Cc3ccc(-c4ccccc4)cc3)NC(=O)[C@H](Cc3ccc(OCC(=O)O)cc3)NC2=O)c1 [Compound 3528] ({CH2CO}-RY(Carboxymethyl)D[Phe(3-Me)]Y(Carboxymethyl)[Bip]Y(Carboxymethyl)[Orn][dL][Dab][Cha][Tle]QC[dN][Aun]-OH; thioether N-14) | 87.8
Cc1cccc(C[C@@H]2NC(=O)[C@H](CC(=O)O)NC(=O)[C@H](Cc3ccc(OCC(=O)O)cc3)NC(=O)[C@H](CCCNC(=N)N)NC(=O)CSC[C@@H](C(=O)N[C@H](CC(N)=O)C(=O)NCCCCCCCCCCC(=O)O)NC(=O)[C@H](CCC(N)=O)NC(=O)[C@H](C(C)O)NC(=O)[C@H](CC3CCCCC3)NC(=O)[C@H](CCN)NC(=O)[C@@H](CC(C)C)NC(=O)[C@H](CCCN)NC(=O)[C@H](Cc3ccc(OCC(=O)O)cc3)NC(=O)[C@H](Cc3ccc(-c4ccccc4)cc3)NC(=O)[C@H](Cc3ccc(OCC(=O)O)cc3)NC2=O)c1 (stereo partly drawn) [Compound 3529] ({CH2CO}-RY(Carboxymethyl)D[Phe(3-Me)]Y(Carboxymethyl)[Bip]Y(Carboxymethyl)[Orn][dL][Dab][Cha][Thr(3ξ)]QC[dN][Aun]-OH; thioether N-14) | 78.1
Cc1cccc(C[C@@H]2NC(=O)[C@H](CC(=O)O)NC(=O)[C@H](Cc3ccc(OCC(=O)O)cc3)NC(=O)[C@H](CCCNC(=N)N)NC(=O)CSC[C@@H](C(=O)N[C@@H](CCN)C(=O)NCCCCCCCCCCC(=O)O)NC(=O)[C@H](CO)NC(=O)[C@H](C(C)O)NC(=O)[C@H](CC3CCCCC3)NC(=O)[C@H](CCN)NC(=O)[C@@H](CC(C)C)NC(=O)[C@H](CCCN)NC(=O)[C@H](Cc3ccc(OCC(=O)O)cc3)NC(=O)[C@H](Cc3ccc(-c4ccccc4)cc3)NC(=O)[C@H](Cc3ccc(OCC(=O)O)cc3)NC2=O)c1 (stereo partly drawn) [Compound 3530] ({CH2CO}-RY(Carboxymethyl)D[Phe(3-Me)]Y(Carboxymethyl)[Bip]Y(Carboxymethyl)[Orn][dL][Dab][Cha][Thr(3ξ)]SC[Dab][Aun]-OH; thioether N-14) | 7.3
Cc1cccc(C[C@@H]2NC(=O)[C@H](CC(=O)O)NC(=O)[C@H](Cc3ccc(OCC(=O)O)cc3)NC(=O)[C@H](CCCNC(=N)N)NC(=O)CSC[C@@H](C(=O)N[C@@H](CCN)C(=O)NCCCCCCCCCCC(=O)O)NC(=O)[C@H](CO)NC(=O)[C@H](C(C)(C)C)NC(=O)[C@H](CC3CCCCC3)NC(=O)[C@H](CCN)NC(=O)[C@@H](CC(C)C)NC(=O)[C@H](CCCN)NC(=O)[C@H](Cc3ccc(OCC(=O)O)cc3)NC(=O)[C@H](Cc3ccc(-c4ccccc4)cc3)NC(=O)[C@H](Cc3c[nH]c4ccccc34)NC2=O)c1 [Compound 3531] ({CH2CO}-RY(Carboxymethyl)D[Phe(3-Me)]W[Bip]Y(Carboxymethyl)[Orn][dL][Dab][Cha][Tle]SC[Dab][Aun]-OH; thioether N-14) | 48.6
